Assay results reported in BindingDB's records for doi:10.1016/j.bmcl.2010.09.011 (The University of Tokyo, 2010).

Columns and labels:
[1] = Vitamin-D activity at VDR receptor in human HL60 cells assessed as induction of cell differentiation by NBT reduction assay
[2] = Antiandrogen activity against androgen receptor in androgen-dependent mouse SC3 cells assessed as inhibition of testosterone-induced cell proliferation by WST1 assay

SMILES	EC50 [1]	IC50 [2]
CCC(CC)(c1ccc(OCC(=O)C23CC4CC(CC(C4)C2)C3)c(C)c1)c1ccc(OC[C@@H](O)CO)c(C)c1	> 30 µM	> 30 µM
CCC(CC)(c1ccc(OCC(O)C23CC4CC(CC(C4)C2)C3)c(C)c1)c1ccc(OC[C@@H](O)CO)c(C)c1 (stereo not given in full)	22 µM	> 10 µM
CCC(CC)(c1ccc(OC[C@@H](O)CO)c(C)c1)c1ccc(O[C@@H]2CN(Cc3ccccc3)C[C@@H]2O)c(C)c1 [(2S)-3-(4-(3-(4-(1-benzyl-4-hydroxypyrrolidin-3-yloxy)-3-methylphenyl)pentan-3-yl)-2-methylphenoxy)propane-1,2-diol]	> 30 µM	> 10 µM
CCC(CC)(c1ccc(OCC(O)C(C)(C)Cc2ccc3ccccc3c2)c(C)c1)c1ccc(OC[C@@H](O)CO)c(C)c1 (stereo partly drawn) [(2S)-3-(4-(3-(4-(2-hydroxy-3,3-dimethyl-4-(naphthalen-2-yl)butoxy)-3-methylphenyl)pentan-3-yl)-2-methylphenoxy)propane-1,2-diol]	> 30 µM	> 10 µM
CCC(CC)(c1ccc(OCC(O)C(C)(C)Cc2ccccc2)c(C)c1)c1ccc(OC[C@@H](O)CO)c(C)c1 (stereo partly drawn) [(2S)-3-(4-(3-(4-(2-hydroxy-3,3-dimethyl-4-phenylbutoxy)-3-methylphenyl)pentan-3-yl)-2-methylphenoxy)propane-1,2-diol]	11 µM	1.7 µM
CCC(CC)(c1ccc(OCC(O)C(C)(C)CCc2ccccc2)c(C)c1)c1ccc(OC[C@@H](O)CO)c(C)c1 (stereo partly drawn) [(2S)-3-(4-(3-(4-(2-hydroxy-3,3-dimethyl-5-phenylpentyloxy)-3-methylphenyl)pentan-3-yl)-2-methylphenoxy)propane-1,2-diol]	7.1 µM	0.88 µM
CCC(CC)(c1ccc(OCC(O)C(C)(C)CCCc2ccccc2)c(C)c1)c1ccc(OC[C@@H](O)CO)c(C)c1 (stereo partly drawn) [(2S)-3-(4-(3-(4-(2-hydroxy-3,3-dimethyl-6-phenylhexyloxy)-3-methylphenyl)pentan-3-yl)-2-methylphenoxy)propane-1,2-diol]	3.6 µM	0.13 µM
CCC(CC)(c1ccc(OCC(O)C(C)(C)CCCCc2ccccc2)c(C)c1)c1ccc(OC[C@@H](O)CO)c(C)c1 (stereo partly drawn) [(2S)-3-(4-(3-(4-(2-hydroxy-3,3-dimethyl-7-phenylheptyloxy)-3-methylphenyl)pentan-3-yl)-2-methylphenoxy)propane-1,2-diol]	> 30 µM	> 10 µM
CCC(CC)(c1ccc(OC[C@@H](O)CO)c(C)c1)c1ccc(OC[C@H](O)C(C)(C)C)c(C)c1 [(2S)-3-{4-[1-ethyl-1-(4-{[(2R)-2-hydroxy-3,3-dimethylbutyl]oxy}-3-methylphenyl)propyl]-2-methylphenoxy}propane-1,2-diol]		0.003 µM
CCC(CC)(c1ccc(OCC(=O)C(C)(C)C)c(C)c1)c1ccc(OC[C@H](O)CO)c(C)c1 [(R)-1-(4-(3-(4-(2,3-dihydroxypropoxy)-3-methylphenyl)pentan-3-yl)-2-methylphenoxy)-3,3-dimethylbutan-2-one]		0.015 µM
CCC(CC)(c1ccc(OC[C@H](O)CO)c(C)c1)c1ccc(OC[C@H](O)C(C)(C)C)c(C)c1 [(R)-3-(4-(3-(4-((R)-2-hydroxy-3,3-dimethylbutoxy)-3-methylphenyl)pentan-3-yl)-2-methylphenoxy)propane-1,2-diol]		0.014 µM
CCC(CC)(c1ccc(OC[C@H](O)CO)c(C)c1)c1ccc(OC[C@@H](O)C(C)(C)C)c(C)c1 [(R)-3-(4-(3-(4-((S)-2-hydroxy-3,3-dimethylbutoxy)-3-methylphenyl)pentan-3-yl)-2-methylphenoxy)propane-1,2-diol]		0.068 µM
CCC(CC)(c1ccc(OCC(=O)C(C)(C)Cc2ccc3ccccc3c2)c(C)c1)c1ccc(OC[C@@H](O)CO)c(C)c1 [(S)-1-(4-(3-(4-(2,3-dihydroxypropoxy)-3-methylphenyl)pentan-3-yl)-2-methylphenoxy)-3,3-dimethyl-4-(naphthalen-2-yl)butan-2-one]	> 30 µM	> 30 µM
CCC(CC)(c1ccc(OCC(=O)C(C)(C)Cc2ccccc2)c(C)c1)c1ccc(OC[C@@H](O)CO)c(C)c1 [(S)-1-(4-(3-(4-(2,3-dihydroxypropoxy)-3-methylphenyl)pentan-3-yl)-2-methylphenoxy)-3,3-dimethyl-4-phenylbutan-2-one]	21 µM	> 10 µM
CCC(CC)(c1ccc(OCC(=O)C(C)(C)CCc2ccccc2)c(C)c1)c1ccc(OC[C@@H](O)CO)c(C)c1 [(S)-1-(4-(3-(4-(2,3-dihydroxypropoxy)-3-methylphenyl)pentan-3-yl)-2-methylphenoxy)-3,3-dimethyl-5-phenylpentan-2-one]	23 µM	1.1 µM
CCC(CC)(c1ccc(OCC(=O)C(C)(C)CCCc2ccccc2)c(C)c1)c1ccc(OC[C@@H](O)CO)c(C)c1 [(S)-1-(4-(3-(4-(2,3-dihydroxypropoxy)-3-methylphenyl)pentan-3-yl)-2-methylphenoxy)-3,3-dimethyl-6-phenylhexan-2-one]	> 30 µM	9.8 µM
CCC(CC)(c1ccc(OCC(=O)C(C)(C)CCCCc2ccccc2)c(C)c1)c1ccc(OC[C@@H](O)CO)c(C)c1 [(S)-1-(4-(3-(4-(2,3-dihydroxypropoxy)-3-methylphenyl)pentan-3-yl)-2-methylphenoxy)-3,3-dimethyl-7-phenylheptan-2-one]	> 30 µM	> 30 µM
CCC(CC)(c1ccc(OCC(=O)C(C)(C)C)c(C)c1)c1ccc(OC[C@@H](O)CO)c(C)c1 [(S)-1-(4-(3-(4-(2,3-dihydroxypropoxy)-3-methylphenyl)pentan-3-yl)-2-methylphenoxy)-3,3-dimethylbutan-2-one]		0.032 µM
CCC(CC)(c1ccc(OC[C@@H](O)CO)c(C)c1)c1ccc(OC[C@@H](O)C(C)(C)C)c(C)c1 [(S)-3-(4-(3-(4-((S)-2-hydroxy-3,3-dimethylbutoxy)-3-methylphenyl)pentan-3-yl)-2-methylphenoxy)propane-1,2-diol]		0.013 µM
CCC(CC)(c1ccc(OCC(=O)C(C)(C)C)c(C)c1)c1ccc(OCC(O)CO)c(C)c1 (stereo not given) [LG190178]	0.09 µM	
CCC(CC)(c1ccc(OC[C@@H](O)CO)c(C)c1)c1ccc(O[C@@H]2CN(C(=O)OCc3ccccc3)C[C@@H]2O)c(C)c1 [benzyl 3-(4-(3-(4-((S)-2,3-dihydroxypropoxy)-3-methylphenyl)pentan-3-yl)-2-methylphenoxy)-4-hydroxypyrrolidine-1-carboxylate]	> 30 µM	> 30 µM
